Laboratory results taken from patent US6969714B2, “Imidazolo-5-YL-2-anilino-pyrimidines as agents for the inhibition of the cell proliferation” (AstraZeneca AB, priority 2000, dated 2005).

Target: T1, CDK2/Cyclin E (Homo sapiens, UniProt P24941)
T1 construct: The open reading frames of CDK2 and Cyclin E were isolated; made in house; host or cells: Sf21 (Spodoptera frugiperda) insect cells, baculovirus co-infection; the GST-Rb substrate was made in E. coli BL21 (DE3) pLysS
Assay: in vitro kinase assay, Scintillation Proximity Assay, incorporation of [γ-33-P]-ATP into GST-Rb
Format: biochemical
Conditions: GST-Rb substrate, 0.2 μM ATP, 60 minutes at room temperature, read-out: CDK2 inhibitory activity IC50
Procedure: The compounds were tested in an in vitro kinase assay in 96 well format using Scintillation Proximity Assay (SPA—obtained from Amersham) for measuring incorporation of [γ-33-P]-Adenosine Triphosphate into a test substrate (GST-Retinoblastoma protein; GST-Rb). In each well was placed the compound to be tested (diluted in DMSO and water to correct concentrations) and in control wells either roscovitine as an inhibitor control or DMSO as a positive control. […]
The plates were sealed with Topseal-S plate sealers, left for two hours then spun at 2500 rpm, 1124×g., for 5 minutes. The plates were read on a Topcount for 30 seconds per well. […]
E. coli paste was resuspended in 10 ml/g of NETN buffer (50 mM Tris pH 7.5, 120 mM NaCl, 1 mM EDTA, 0.5% v/v NP-40, 1 mM PMSF, 1 ug/ml leupeptin, 1 ug/ml aprotinin and 1 ug/ml pepstatin) and sonicated for 2×45 seconds per 100 ml homogenate. […] The final product was analysed by Sodium Dodeca Sulfate (SDS) PAGE (Polyacrylamide gel) using 8-16% Tris-Glycine gels (Novex, San Diego, USA).
The open reading frames of CDK2 and Cyclin E were isolated by reverse transcriptase-PCR using HeLa cell and activated T cell mRNA as a template and cloned into the insect expression vector pVL1393 (obtained from Invitrogen 1995 catalogue number: V1392-20). […]

## Cn1cncc1-c1ccnc(Nc2ccccc2)n1 [Example 14, 2-Anilino-4-(1-methylimidazol-5-yl)pyrimidine]
  IC50: 0.146 µM
